# In patent US20240343747A1, “Heteroaryl compounds as inhibitors of TYK2, composition and application thereof” (Accro Bioscience (HK) Limited, priority 2021, published 2024):
# How the values were obtained:
# [1] = Metabolic stability test, human liver microsomes; type: in vitro ADME
# Method: (§1) • 1. Buffer A: 1.0 L of 0.1 M monobasic Potassium Phosphate buffer containing 1.0 mM EDTA • Buffer B: 1.0 L of 0.1 M Dibasic Potassium Phosphate buffer containing 1.0 mM EDTA • Buffer C: 0.1 M Potassium Phosphate buffer, 1.0 mM EDTA, at about pH 7.4 by titrating 700 mL of Buffer B with Buffer A while monitoring with the pH meter. • 2. Reference compounds (Ketanserin) and test compounds spiking solution: • 500 µM spiking solution: add 10 μL of 10 mM DMSO stock solution into […] ACN. • 1.5 µM spiking solution in microsomes (0.75 mg/mL): add 1.5 μL of 500 µM spiking solution and 18.75 μL of 20 mg/mL liver microsomes into 479.75 μL of Buffer C on ice. • 3. Prepare NADPH stock solution (6 mM) by dissolving NADPH into buffer C. • 4. Dispense 30 μL of 1.5 µM spiking solution containing 0.75 mg/mL microsomes solution to the assay plates designated for different time points (0-, 5-, 15-, 30-, 45-min) on ice. • 5. For 0-min, add 135 μL of ACN containing IS to the wells of 0-min plate and then add 15 μL of NADPH stock solution (6 mM). • 6. Pre-incubate all other plates at 37° C. for 5 minutes. • 7. Add 15 μL of NADPH stock solution (6 mM) to the plates to start the reaction and timing. • 8. At 5-min, 15-min, 30-min, and 45-min, add 135 μL of ACN containing IS to the wells of corresponding plates, respectively, to stop the reaction. • 9. After quenching, shake the plates at the vibrator (IKA, MTS 2/4) for 10 min (600 rpm/min) and then centrifuge at 5594 g for 15 min (Thermo Multifuge×3R). • 10. Transfer 50 μL of the supernatant from each well into a 96-well sample plate containing 50 μL of ultra pure water (Millipore, ZMQS50F01) for LC/MS analysis.
# [2] = Metabolic stability test, rat liver microsomes; type: in vitro ADME
# Method: as §1
# JAK2 JH1 = JAK2 JH1 (Homo sapiens (Human), UniProt O60674); assay: Competitive binding assay (kinase-tagged phage, qPCR), JAK2 JH1
# Method: For most assays, kinase-tagged T7 phage strains were prepared in an E. coli host derived from the BL21 strain. E. coli were grown to log-phase and infected with T7 phage and incubated with shaking at 32° C. until lysis. The lysates were centrifuged and filtered to remove cell debris. The remaining kinases were produced in HEK-293 cells and subsequently tagged with DNA for qPCR detection. Streptavidin coated magnetic beads were treated with biotinylated small molecule ligands for 30 minutes at room temperature to generate affinity resins for kinase assays. The liganded beads were blocked with excess biotin and washed with blocking buffer (SeaBlock (Pierce), 1% BSA, 0.05% Tween 20, 1 mM DTT) to remove unbound ligand and to reduce non-specific binding. […] Test compounds were prepared as 111X stocks in 100% DMSO. Dissociation constants (Kds) were determined using an 11-point 3-fold compound dilution series with three DMSO control points. […] The kinase concentration in the eluates was measured by qPCR.
# An 11-point 3-fold serial dilution of each test compound was prepared in 100% DMSO at 100× final test concentration and subsequently diluted to 1× in the assay (final DMSO concentration=1%). Most Kds were determined using a compound top concentration=30,000 nM. […]
# Binding constants (Kds) were calculated with a standard dose-response curve using the Hill equation: […]
# TYK2/JAK2 pathway = assay: Selectivity: TYK2/JAK2 pathway, IL-12-induced p-STAT4 in mouse spleen cells, western blot; type: cell-based, mice
# Method: The spleen of mice was isolated and ground into single cells with bent tweezers. The single cells of the spleen were centrifuged for 5 minutes (400 g), and erythrocytes were lysed with ACK solution and neutralized in 1640 medium, centrifuged for 5 minutes (400 g), and then re-suspended in 1640 medium. The spleen single cell suspension was counted and incubated to a 6-well plate (5 million/well), the compound to be tested was added for 2 hours, and then IL-12 (50 ng/mL) was added to stimulate cells for 1 h. The cells were collected and lysed with protein lysate. The protein was quantitatively tested by BCA kit. Finally, p-STAT4/STAT4 and internal reference protein β-actin were detected by western blot.
# JAK1/JAK2 pathway = assay: Selectivity: JAK1/JAK2 pathway, IFN-γ-induced p-STAT1 in HT-29 cells, western blot; type: cell-based; details: IFN-γ 100 ng/mL
# Method: HT-29 cells were digested by trypsin and suspended in DMEM medium and counted. The tested compounds were added into 6 well plates (400 000/per well) for 2 hours, then IFN-γ (100 ng/mL) was added to stimulate cells for 30 minutes. The cells were collected and lysed with protein lysate. The protein was quantitatively tested by BCA kit. Finally, p-STAT1/STAT1 and internal reference protein β-actin were detected by western blot.
# JAK1/JAK3 pathway = assay: Selectivity: JAK1/JAK3 pathway, IL-2-induced p-STAT5 in human PBMC, western blot; type: cell-based; details: IL-2 100 ng/mL
# Method: Commercial human PBMC (peripheral blood mononuclear cells) were centrifuged (400 g) for 10 min, counted and seeded into 6-well plates (5 million/well). The compounds to be tested were added for 2 hours and then IL-2 (100 ng/mL) was added to stimulate cells for 15 minutes. Finally, p-STAT5/STAT5 and internal reference protein β-actin were detected by Western blot.
# Chain of JAK2 JH1 (O60674 849-1124): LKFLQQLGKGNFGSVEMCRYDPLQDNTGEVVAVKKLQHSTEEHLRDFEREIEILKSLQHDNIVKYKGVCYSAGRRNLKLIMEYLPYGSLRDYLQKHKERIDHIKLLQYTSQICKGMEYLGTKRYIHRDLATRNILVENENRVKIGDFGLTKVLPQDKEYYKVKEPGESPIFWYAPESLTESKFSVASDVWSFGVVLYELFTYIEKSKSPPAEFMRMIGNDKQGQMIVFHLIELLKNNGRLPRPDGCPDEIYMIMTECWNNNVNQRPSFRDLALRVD
stability in human liver microsomes (in words) ([1]; conclusion from Table 5),CL HLM ([1]; human liver microsomes) [mL/min/kg],"half-life at 1 μM ([1]; pH 7.4, human liver microsomes, read-out: T1/2 HLM) [h]",stability in rat liver microsomes (in words) ([2]; conclusion from Table 5),"half-life at 1 μM ([2]; pH 7.4, rat liver microsomes, read-out: T1/2 RLM) [h]",CL RLM ([2]; rat liver microsomes) [mL/min/kg],Kd (JAK2 JH1) [µM],Structure (SMILES),inhibition of TYK2/JAK2 pathway compared with BMS986165 (TYK2/JAK2 pathway; IL-12),"inhibition of downstream STAT4 phosphorylation induced by IL-12 (TYK2/JAK2 pathway; IL-12 50 ng/mL, western blot)",effect on downstream STAT1 phosphorylation induced by IFN-γ (JAK1/JAK2 pathway),effect on IL-2-induced downstream STAT5 phosphorylation (JAK1/JAK3 pathway)
good stability,<8.6,> 2.42,good stability,1.68,24.6,–,"CCC(=O)c1cnc(NC(=O)C2CC2)cc1Nc1cccc(-c2cc(P(C)(C)=O)n(C)n2)c1OC [Compound B2, N-(4-((3-(5-(dimethylphosphoryl)-1-methyl-1H-pyrazol-3-yl)-2-methoxyphenyl)amino)-5-propionylpyridin-2-yl)cyclopropanecarboxamide]",–,–,–,–
–,–,–,–,–,–,> 30,"CCC(=O)c1cnc(NC(=O)C2CC2)cc1Nc1cccc(-c2cc(P(=O)(C3CC3)C3CC3)n(C)n2)c1OC [Compound B37, N-(4-((3-(5-(dicyclopropylphosphoryl)-1-methyl-1H-pyrazol-3-yl)-2-methoxyphenyl)amino)-5-propionylpyridin-2-yl)cyclopropanecarboxamide]",better than BMS986165,effectively inhibit,no effect,no effect
